Experimental data: patent publication US12514871B2, “Pegylated menaquinol compositions and methods of treatment” (Epizon Pharma, Inc., priority 2022, dated 2026)
Several values for one entry are separate records, joined by “and”; a condition that tells them apart may be missing. Equal values may be shown once.

Assays:
[1] = Single dose oral pharmacokinetics study in male Sprague Dawley rats; assay type: in vivo, Rat; settings: for Plasma Concentration of Menaquinone-7, Mean (comparative table): G1: Menaquinone-7 oral
[2] = Clinical observations in the single dose oral pharmacokinetics study; assay type: in vivo, Rat; settings: oral 1000 μg per kg body weight, till 48 h post dose
[3] = Single dose oral pharmacokinetics study in male Sprague Dawley rats; assay type: in vivo, Rat; settings: for Plasma Concentration of Menaquinone-7, Mean (comparative table): G1: Menaquinone-7 oral; for Plasma Concentration of Menaquinone-7, Mean / Plasma Concentration of Menaquinone-7, individual animals: fasted
Protocol: Male Sprague Dawley rats aged 8-10 weeks and weighing around 202-223 grams are used for in vivo testing. Animals are fasted overnight with free access to water. Animals are split into 4 groups G1 to G4, each group containing 3 rats. To determine the bioavailability, the test items are separately dissolved in corn oil to obtain homogenous formulations. Animals are administered with test items by oral gavage, animals of G1 received 1088 μg, G2 received 1073 μg, G3 and G4 received 1000 μg per kg body weight dose of compound Ia.1, m=9, n=7 (G1), of compound Ia.1, m=9, n=9 (G2), menaquinone-7 (G3) and menaquinone-9 (G4) respectively. The doses of Ia.1 (n=7) (G1), of Ia.1 (n=9) were adjusted for the menaquinol content. Blood samples are collected at various time points during the next 48 hours post dose.
Blood samples were collected and transferred to tubes containing K2EDTA and immediately placed on ice for plasma preparations. Plasma was prepared by centrifugation at 3500 g for 10 min, aliquots are frozen at −80° C. until analysis. Quantification of analyte in plasma is determined by LC-MS-MS analysis. Plasma PK parameters are calculated using WinNonlin software.
Approximately 5 mg of Menaquinone-7 was weighed and transferred to a graduated tube. Then 10 mL of sunflower oil was added and vortex mixed thoroughly until the test item is completely dissolved. The formulation was prepared in dark room under monochromatic light. The final strength of the formulation was 500 μg/mL. The formulation was prepared fresh before administration. […]

caspase-3 = settings: at a concentration of 10 mcmol/L; cited from earlier work
[4] = Menaquinone-7 oral 1000 μg/kg b.w., sunflower oil
[5] = Menaquinone-7 oral 1000 μg/kg b.w., sunflower oil, N 6
[6] = Menaquinone-7 oral 1000 μg/kg b.w., sunflower oil, time 0.00 h
[7] = Menaquinone-7 oral 1000 μg/kg b.w., sunflower oil, time 0.50 h
[8] = Menaquinone-7 oral 1000 μg/kg b.w., sunflower oil, time 1.00 h
[9] = Menaquinone-7 oral 1000 μg/kg b.w., sunflower oil, time 2.00 h
[10] = Menaquinone-7 oral 1000 μg/kg b.w., sunflower oil, time 4.00 h
[11] = Menaquinone-7 oral 1000 μg/kg b.w., sunflower oil, time 6.00 h
[12] = Menaquinone-7 oral 1000 μg/kg b.w., sunflower oil, time 8.00 h
[13] = Menaquinone-7 oral 1000 μg/kg b.w., sunflower oil, time 24.00 h
[14] = Menaquinone-7 oral 1000 μg/kg b.w., sunflower oil, time 48.00 h

## CC(C)=CCC/C(C)=C/CC/C(C)=C/CC/C(C)=C/CC/C(C)=C/CC/C(C)=C/CC/C(C)=C/CC1=C(C)C(=O)c2ccccc2C1=O [Menaquinone-7]
[1]; Time 0.25 h
  Plasma Concentration of Menaquinone-7, Mean (comparative table): 0.00 ng/mL
[1]; Time 24.00 h
  Plasma Concentration of Menaquinone-7, Mean (comparative table): 5 ng/mL
[1]; [4]
  Tmax of Menaquinone-7 in plasma, individual animals: 6 h and 8 h and 4 h and 2 h
[1]; [5]
  Cmax of Menaquinone-7 in plasma, Mean: 19 ng/mL and 19.808 ng/mL and 19.81 ± 4.93 ng/mL
[2]
  Clinical Observations: Rats showed no adverse clinical signs of toxicity
[3]; Time 0.00 h
  Plasma Concentration of Menaquinone-7, Mean (comparative table): 0.00 ng/mL
[3]; Time 0.50 h
  Plasma Concentration of Menaquinone-7, Mean (comparative table): 3 ng/mL
[3]; Time 1.00 h
  Plasma Concentration of Menaquinone-7, Mean (comparative table): 11 ng/mL
[3]; Time 2.00 h
  Plasma Concentration of Menaquinone-7, Mean (comparative table): 15 ng/mL
[3]; Time 4.00 h
  Plasma Concentration of Menaquinone-7, Mean (comparative table): 14 ng/mL
[3]; Time 6.00 h
  Plasma Concentration of Menaquinone-7, Mean (comparative table): 10 ng/mL
[3]; Time 8.00 h
  Plasma Concentration of Menaquinone-7, Mean (comparative table): 6 ng/mL
[3]; Time 48.00 h
  Plasma Concentration of Menaquinone-7, Mean (comparative table): 2 ng/mL
[3]; [4]
  AUClast of Menaquinone-7 in plasma, individual animals: 352.16 ng·h/mL and 320.74 ng·h/mL and 166.19 ng·h/mL and 339.5 ng·h/mL and 211.72 ng·h/mL and 286.28 ng·h/mL
  Cmax of Menaquinone-7 in plasma, individual animals: 19.84 ng/mL and 13.25 ng/mL and 24.87 ng/mL and 23.02 ng/mL and 23.47 ng/mL and 14.4 ng/mL
  Half life of Menaquinone-7 in plasma, individual animals: 29.15 h and 30.91 h and 9.47 h and 21.96 h and 12.17 h and 35.05 h
  MRTlast of Menaquinone-7 in plasma, individual animals: 19.94 h and 20.91 h and 8.55 h and 14.68 h and 9.02 h and 20.28 h
[3]; [5]
  AUClast of Menaquinone-7 in plasma, Mean: 279.428 ng·h/mL and 279.43 ± 74.91 ng·h/mL
  Half life of Menaquinone-7 in plasma, Mean: 23.118 h and 23.12 ± 10.46 h
  MRTlast of Menaquinone-7 in plasma, Mean: 15.562 h and 15.56 ± 5.71 h
  Tmax of Menaquinone-7 in plasma, Mean: 5.000 h and 5.00 ± 2.10 h
[3]; [6]
  Plasma Concentration of Menaquinone-7, Mean: 0.00 ng/mL
  Plasma Concentration of Menaquinone-7, individual animals: 0.00 ng/mL
[3]; [7]
  Plasma Concentration of Menaquinone-7, Mean: 0.00 ng/mL
  Plasma Concentration of Menaquinone-7, individual animals: 0.00 ng/mL
[3]; [8]
  Plasma Concentration of Menaquinone-7, Mean: 3.23 ng/mL
  Plasma Concentration of Menaquinone-7, individual animals: 0.00 ng/mL (2×) and 3.56 ng/mL and 5.64 ng/mL and 2.91 ng/mL and 7.26 ng/mL
[3]; [9]
  Plasma Concentration of Menaquinone-7, Mean: 11.83 ng/mL
  Plasma Concentration of Menaquinone-7, individual animals: 3.21 ng/mL and 3.69 ng/mL and 9.07 ng/mL and 22.74 ng/mL and 17.91 ng/mL and 14.40 ng/mL
[3]; [10]
  Plasma Concentration of Menaquinone-7, Mean: 15.64 ng/mL
  Plasma Concentration of Menaquinone-7, individual animals: 11.45 ng/mL and 7.00 ng/mL and 24.87 ng/mL and 154.39* ng/mL and 23.47 ng/mL and 11.40 ng/mL
[3]; [11]
  Plasma Concentration of Menaquinone-7, Mean: 14.62 ng/mL
  Plasma Concentration of Menaquinone-7, individual animals: 19.84 ng/mL and 5.53 ng/mL and 13.11 ng/mL and 23.02 ng/mL and 15.09 ng/mL and 11.15 ng/mL
[3]; [12]
  Plasma Concentration of Menaquinone-7, Mean: 10.35 ng/mL
  Plasma Concentration of Menaquinone-7, individual animals: 11.92 ng/mL and 13.25 ng/mL and 8.18 ng/mL and 8.40 ng/mL and 10.89 ng/mL and 9.43 ng/mL
[3]; Menaquinone-7 oral 1000 μg/kg b.w., sunflower oil, time 12.00 h
  Plasma Concentration of Menaquinone-7, individual animals: 7.05 ng/mL and 5.90 ng/mL and 4.26 ng/mL and 10.00 ng/mL and 5.48 ng/mL and 4.87 ng/mL
[3]; [13]
  Plasma Concentration of Menaquinone-7, Mean: 5.70 ng/mL
  Plasma Concentration of Menaquinone-7, individual animals: 8.16 ng/mL and 9.12 ng/mL and 3.00 ng/mL and 3.96 ng/mL and 4.84 ng/mL and 5.12 ng/mL
[3]; [14]
  Plasma Concentration of Menaquinone-7, Mean: 2.36 ng/mL
  Plasma Concentration of Menaquinone-7, individual animals: 3.81 ng/mL and 3.03 ng/mL and 0.00 ng/mL (2×) and 2.74 ng/mL and 4.56 ng/mL
[3]; after Menaquinone-7 administration, 1000 μg/kg body weight oral, in ng·h/mL
  plasma exposure of Menaquinone-7: 279.43±74.91

## vitamin K2 [VK2]
caspase-3
  decrease of the activity of caspase-3: 2.5 fold
